These results are taken from US20130216649A1, “MOUTH-MOISTENING GUM COMPOSITIONS AND PRODUCTS CONTAINING THE SAME” (Kraft Foods Global Brands LLC, priority 2010, published 2013).

The experiment is described as follows: Effect of the spilanthol amount in a chewing gum formulation (taste, mouth moistening). Type of experiment: in vivo. The conditions noted are these: below 75 ppm in a chewing gum formulation.

Regarding `C/C=C/C=C\CC/C=C/C(=O)NCC(C)C` [spilanthol, N-isobutyl-2E,6Z,8E-decatrienamide], the “effectiveness for mouth-moistening purposes” value is listed as “insufficient”.
